Read-outs that look alike come from different tables or passages of the source.
Experiments:
[1] = LD50 / toxicity, mice with 7-days Ehrlich ascitic tumor; assay type: in vivo; settings: for LD50: mouse, in vivo
melanoma B16 = test: Antitumor activity, melanoma B16; assay type: in vivo, mice
Method: Apart from the tests on Ehrlich ascitic tumor, giniquine was studied on twelve more inoculated tumors. Seven tumors (melanoma B16, sarcoma AK, large intestine carcinoma acatol-1, sarcoma 180, adenocarcinoma 755, Lewis lung carcinoma and sarcoma 37) were inoculated subcutaneously with 50 mg of tumoral cells per mouse. Four tumors (lymphatic leukemies L 5178, L 5178Y, L 1210 and P-388) were inoculated intraperitoneally with 10^6 cells per mouse. One tumor (La, hemocytoblastosis) was inoculated intraperitoneally by injecting 50 mg of cell suspension of spleen and liver of mice suffering La hemocytoblastosis, per mouse. […] The rate of deceleration of the tumor growth was established 14 days after the ultimate injection of giniquine; life of test animals was recorded for 60 days.

Brain = test: In vivo biosynthesis of DNA, RNA and protein in brain; parameters: species or system mice; settings: 24 hours, intraperitoneal 28 mg/kg
Method: (§1) The influence of giniquine on biosynthetic processes in the in vivo tests was studied on common white mice of a mass of 25-35 g with Ehrlich ascitic tumor.
(§2) The mice were divided into two groups. The animals in the first group were given a single injection of the preparation in differing doses, and the animals in the second group were treated with distilled water. Three series of experiments were conducted. In the first series of tests (16 mice) the preparation was injected in a dose of 100 mg/kg ([…] dose), and the animals were decapitated one hour after the injection; in the second test series (16 mice) the animals were slaughtered 3 hours after the injection with other conditions being the same. In the third test series (35 mice) the influence of giniquine on plastic metabolism in tumor cells and normal tissues was studied 24 hours after the injection of a 0.33% solution of the preparation in a dose of 28 mg/kg (therapeutical dose).
(§3) Labeled precursors of nucleic acids and protein were injected intraperitoneally one hour before the slaughter of the animals (50 μc/100 g). Ascitic fluid, as well as liver and spleen, mucous membrane of small intestine, brain, kidneys and lungs were taken for analysis. 10% suspension was prepared from tumor cells, and 10% homogenates were prepared from tissues in a physiological solution.
(§4) Tumor cells and tissue homogenates for precipitation of nucleic acids were treated with 57% perchloric acid (10:1). […] Radioactivity of DNA and RNA fractions was measured by means of a liquid scintillation counter. The quantity of DNA and RNA was determined by spectrophotometry: the quantity of DNA was determined with diphenylamine, and RNA- with orcin.
(§5) To prepare protein hydrolysate, the suspension of tumoral cells and homogenates of normal tissues were treated with cool 10% trichloracetic acid (1:4), with subsequent centrifuging at 2000 g for ten minutes. […] The radioactivity was measured by means of a liquid scintillation counter. Protein was quantitatively determined by spectrophotometry using a microbiuret reaction.

[2] = system: normal tissues (mucous membrane of small intestine, liver, spleen, brain, kidneys, lungs); test: In vivo biosynthesis of macromolecules in normal tissues; parameters: species or system mice; settings: 24 hours, 28 mg/kg
Method: as §1
The mice were divided into two groups. The animals in the first group were given a single injection of the preparation in differing doses, and the animals in the second group were treated with distilled water. Three series of experiments were conducted. […]
as §4, §5

acatol-1 = test: Antitumor activity, large intestine adenocarcinoma acatol-1; assay type: in vivo, mice
Method: (§6) Apart from the tests on Ehrlich ascitic tumor, giniquine was studied on twelve more inoculated tumors. Seven tumors (melanoma B16, sarcoma AK, large intestine carcinoma acatol-1, sarcoma 180, adenocarcinoma 755, Lewis lung carcinoma and sarcoma 37) were inoculated subcutaneously with 50 mg of tumoral cells per mouse. Four tumors (lymphatic leukemies L 5178, L 5178Y, L 1210 and P-388) were inoculated intraperitoneally with 10^6 cells per mouse. One tumor (La, hemocytoblastosis) was inoculated intraperitoneally by injecting 50 mg of cell suspension of spleen and liver of mice suffering La hemocytoblastosis, per mouse. Giniquine was injected intraperitoneally five times for seven days: 1,2,3,4,7 days or 3,4,5,6,7 days after the implantation of tumor. The rate of deceleration of the tumor growth was established 14 days after the ultimate injection of giniquine; life of test animals was recorded for 60 days.

sarcoma 180 = test: Antitumor activity, sarcoma 180; assay type: in vivo, mice
Method: as §6

adenocarcinoma 755 = test: Antitumor activity, adenocarcinoma 755; assay type: in vivo, mice
Method: as §6

Liver = test: In vivo biosynthesis of DNA, RNA and protein in liver; parameters: species or system mice; settings: for Incorporation of 2-^14 C-leucine in protein / Incorporation of 2-^14 C-thymidine in DNA: intraperitoneal 100 mg/kg; for inhibition at 100 mg/kg: Mus musculus, three hours
Method: as §1, §2, §3
(§7) Tumor cells and tissue homogenates for precipitation of nucleic acids were treated with 57% perchloric acid (10:1). Acid-soluble fraction was removed by washing the precipitate twice with 5 ml of 5% perchloic acid with subsequent centrifuging at 2000 g. Nucleic acids were hydrolyzed by the Schneider method. Radioactivity of DNA and RNA fractions was measured by means of a liquid scintillation counter. The quantity of DNA and RNA was determined by spectrophotometry: the quantity of DNA was determined with diphenylamine, and RNA- with orcin.
(§8) To prepare protein hydrolysate, the suspension of tumoral cells and homogenates of normal tissues were treated with cool 10% trichloracetic acid (1:4), with subsequent centrifuging at 2000 g for ten minutes. The precipitate was washed twice with 5 ml of 10% trichloracetic acid. Lipoids were removed by a consecutive treatment of the precipitate with ethanol, saturated solution of sodium acetate, a mixture of ethanol and ether (3:1) and ether. To prepare protein hyhdrolysate, 4 ml of 0.3N KOH were added to the precipitate, and the mixture was placed into a thermostatic chamber at 37° C. for 60 minutes. The radioactivity was measured by means of a liquid scintillation counter. Protein was quantitatively determined by spectrophotometry using a microbiuret reaction.

[3] = system: lymphatic leukemia L-1210; test: Antitumor activity, lymphatic leukemia L-1210; assay type: in vivo, mice
Method: as §6

[4] = system: Tumor cells (Ehrlich ascitic tumor); test: In vivo biosynthesis of DNA, RNA and protein in tumor cells; parameters: species or system mice; settings: for Incorporation of 2-^14 C-leucine in protein / Incorporation of 2-^14 C-thymidine in DNA: intraperitoneal 100 mg/kg; for inhibition at 100 mg/kg: Mus musculus, Ehrlich
Method: as §1, §2, §3, §7, §8

[5] = BDF1 male mice, intraperitoneal, days 1,2,5,6,7, optim. daily dose 17.0 mg/kg
[6] = BALB/c female mice, intraperitoneal, days 3,4,5,6,7, optim. daily dose 10.0 mg/kg
[7] = BDF1 female mice, intraperitoneal, days 1,2,3,4,7, optim. daily dose 6.0 mg/kg
[8] = 24 hours, intraperitoneal 28 mg/kg

SMILES: CCN(CC)CCCC(C)NC(=O)c1cc(C=Cc2ccc([N+](=O)[O-])o2)nc2ccccc12 (stereo not drawn) [giniquine, 2-[2'-(5"-nitrofuryl-2")vinyl]quinoline-4-carboxylic acid (α-methyl-δ-diethylaminobutyl)amide triphosphate]
- toxicity compared to intraperitoneal injection ([1]; intravenous injection): five times greater
- LD50 ([1]; ip, intraperitoneal, ten injections, female): 10 mg/kg
- LD50 ([1]; ip, intraperitoneal, ten injections, male): 7 mg/kg
- LD50 ([1]; iv, single injection, female): 17.5 mg/kg
- LD50 ([1]; iv, single injection, male): 20 mg/kg
- Deceleration of tumor growth (melanoma B16; [5]): 48%
- Max. prolongation of life (melanoma B16; [5]): 10%
- antitumor effect (in words) (melanoma B16; melanoma B16): slight antitumor effect
- Incorporation of specific precursors, DNA (Brain): 125.0 % of control
- Incorporation of specific precursors, Protein (Brain): 105.0 % of control
- Incorporation of specific precursors, RNA (Brain): 124.0 % of control
- biosynthesis processes in normal tissues (in words) [2]: a stimulation of biosynthesis processes
- Deceleration of tumor growth (acatol-1; [6]): 38%
- Max. prolongation of life (acatol-1; [6]): 25%
- antitumor effect / sensitivity (in words) (acatol-1; acatol-1): slight antitumor effect
- Deceleration of tumor growth (sarcoma 180; common female mice, intraperitoneal, days 3,4,5,6,7, optim. daily dose 6.0 mg/kg): 37%
- Max. prolongation of life (sarcoma 180; common female mice, intraperitoneal, days 3,4,5,6,7, optim. daily dose 10.0 mg/kg): 23%
- antitumor effect / sensitivity (in words) (sarcoma 180; sarcoma 180): slight antitumor effect
- Deceleration of tumor growth (adenocarcinoma 755; [7]): 28%
- Max. prolongation of life (adenocarcinoma 755; [7]): 25%
- antitumor effect (in words) (adenocarcinoma 755; adenocarcinoma 755): slight antitumor effect
- Incorporation of 2-^14 C-leucine in protein (Liver; 1 h): 127.0 % of control
- Incorporation of 2-^14 C-thymidine in DNA (Liver; 1 h): 106.0 % of control
- Incorporation of 2-^14 C-leucine in protein (Liver; 3 h): 96.0 % of control
- Incorporation of 2-^14 C-thymidine in DNA (Liver; 3 h): 93.0 % of control
- Incorporation of specific precursors, DNA (Liver; [8]): 190.0 % of control
- Incorporation of specific precursors, Protein (Liver; [8]): 112.0 % of control
- Incorporation of specific precursors, RNA (Liver; [8]): 124.0 % of control
- inhibition at 100 mg/kg (Liver; 3 h, 100 mg/kg, read-out: inhibition of biosynthesis of DNA): 7%
- inhibition at 100 mg/kg (Liver; 3 h, 100 mg/kg, read-out: inhibition of biosynthesis of protein): 4%
- inhibition of biosynthesis of protein (in words) (Liver; one hour, 100 mg/kg): not observed or inappreciable
- stimulation of biosynthesis of DNA (Liver; one hour, 100 mg/kg): 6%
- Max. life prolong. ([3]; BDF1 male mice, intraperitoneal, days 1,2,3,4,7, optimum daily dose 6.0 mg/kg): 15%
- sensitivity (in words) ([3]; L-1210): practically insensitive
- Incorporation of 2-^14 C-leucine in protein ([4]; 1 h): 59.0 % of control
- Incorporation of 2-^14 C-thymidine in DNA ([4]; 1 h): 43.0 % of control
- Incorporation of 2-^14 C-leucine in protein ([4]; 3 h): 14.0 % of control
- Incorporation of 2-^14 C-thymidine in DNA ([4]; 3 h): 30.0 % of control
- suppression of incorporation of 2-^14 C-thymidine in DNA ([4]; 24 hours, 28 mg/kg): 82%
- suppression of incorporation of 2-^14 C-uridine in RNA ([4]; 24 hours, 28 mg/kg): 42%
- Incorporation of specific precursors, DNA [4, 8]: 18.0 % of control
- Incorporation of specific precursors, Protein [4, 8]: 54.0 % of control
- Incorporation of specific precursors, RNA [4, 8]: 58.0 % of control
- inhibition at 100 mg/kg ([4]; 1 h, one hour, 100 mg/kg, read-out: inhibition of biosynthesis of DNA): 57%
- inhibition at 100 mg/kg ([4]; 3 h, three hours, 100 mg/kg, read-out: inhibition of biosynthesis of DNA): 70%
- inhibition at 100 mg/kg ([4]; 3 h, three hours, 100 mg/kg, read-out: inhibition of biosynthesis of protein): 86%
- biosynthesis processes in tumor cells (in words) ([4]; in vivo): the same effect on biosynthesis processes in tumor cells
- suppression of biosynthesis of protein ([4]; one hour, 100 mg/kg): 41%

— patent publication US4201784A, “Substituted 2-[2'-(5"-nitrofuryl-2")vinyl-and 4'-(5"-nitrofuryl-2"-1,3-butadieryl]quinoline-4-carboxylic acid amides and salts thereof” (Institut Organicheskogo Sinteza Akademii Nauk Latviiskoi SSR, priority 1977, dated 1980)
